In one test the target is CRBN-DDB1 (Homo sapiens (Human), UniProt Q96SW2). Nature of the test: CRBN-DDB1 fluorescence polarization (FP) binding assay. Conditions: displacement of Thalidomide-Alexa Fluor or Pomalidomide-fluorescein probe. Here is the method:
Measuring compound ligand binding to CRBN-DDB1 was carried out using an established sensitive and quantitative in vitro fluorescence polarization (FP) based binding assay. […] Compounds were dispensed from serially diluted DMSO stock into black 384-well compatible fluorescence polarization plates using an Echo acoustic dispenser. Compound binding to CRBN-DDB1 was measured by displacement of either a (−)-Thalidomide-Alexa Fluor® or Pomalidomide-fluorescein conjugated probe dye. […] Matching control wells excluding CRBN-DDB1 were used to correct for background fluorescence. Plates were read on an Envision plate reader with appropriate FP filter sets. The corrected S (perpendicular) and P (parallel) values were used to calculate fluorescence polarization (FP) with the following equation: FP=1000*(S−G*P)/(S+G*P).
(In general: Fluorescence polarisation rises when a labelled molecule tumbles more slowly, as on binding a larger partner.)

In another test the test system is MOLT4.1 (WT) cell line. Nature of the test: Cell viability analysis (CellTiter-Glo 2.0), MOLT4.1. Format: cell-based. Conditions: MOLT4.1, 72 hr. As for the experimental part:
(§1) CellTiter-Glo® 2.0 Assay was purchased from Promega (Medison, Wis., USA). MOLT4.1 (WT) cell line was purchased from ATCC (Manassas, Va., USA) and MOLT4.2 (CRBN Knock Out) cell line was generated in house. Cell culture flasks and 384-well microplates were acquired from VWR (Radnor, Pa., USA).
(§2) MOLT4.1 and MOLT4.2 cell viability was determined based on quantification of ATP using CellTiter-Glo® 2.0 luminescent Assay kit, which signals the presence of metabolically-active cells. Briefly, MOLT4.1 and MOLT4.2 cells were seeded into 384-well plates at a cell density of 750 cells per well, the plates were kept at 37° C. with 5% CO2 overnight. On the following day, test compounds were added to the cells from a top concentration of 1 μM with 10 points, half log titration in duplicates. The cells treated in the absence of the test compound were the negative control and the cells treated in the absence of CellTiter-Glo® 2.0 were the positive control. At the same day of compound treatment, CellTiter-Glo® 2.0 was added to a plate with cells treated in the absence of the test compound to establish Cytostatic control value (Cro). Cells treated with the test compound were incubated for 72 hr. CellTiter-Glo reagent was then added to the cells and Luminescence was acquired on EnVision™ Multilabel Reader (PerkinElmer, Santa Clara, Calif., USA).
(§3) MOLT4.1 and MOLT4.2 cell viability was determined based on quantification of ATP using CellTiter-Glo® 2.0 luminescent Assay kit, which signals the presence of metabolically-active cells. Briefly, MOLT4.1 and MOLT4.2 cells were seeded into 384-well plates at a cell density of 750 cells per well, the plates were kept at 37° C. with 5% CO2 overnight. On the following day, test compounds were added to the cells from a top concentration of 1 μM with 10 points, half log titration in duplicates. […] CellTiter-Glo reagent was then added to the cells and Luminescence was acquired on EnVision™ Multilabel Reader (PerkinElmer, Santa Clara, Calif., USA).
On the technique in general: ATP-based viability assays read luminescence as a measure of living cells.

The test system of test [1] is MOLT4.2 (CRBN Knock Out) cell line. Nature of the test: Cell viability analysis (CellTiter-Glo 2.0), MOLT4.2. Format: cell-based. Conditions: MOLT4.2, 72 hr. As for the experimental part: as §1, §2, §3
A further test deals with BRD4 BD1 (Homo sapiens (Human), UniProt O60885). Nature of the test: HiBit assay, BRD4 BD1 degradation analysis. Format: cell-based. Conditions: BRD4_BD1, 293T.29 cells, 3 hr. Here is the method: DMEM no-phenol red medium and fetal bovine serum (FBS) were purchased from Gibco (Grand Island, N.Y., USA). Nano-Glo® HiBiT Lytic Assay System was purchased from Promega (Medison, Wis., USA). 293T.29 (HiBiT-BRD4 BD1) cell line was generated in house, ectopically expressing BRD4 BD1 domain with HiBiT fusion tag. Cell culture flasks and 384-well microplates were acquired from VWR (Radnor, Pa., USA).
BRD4 BD1 degradation was determined based on quantification of luminescent signal using Nano-Glo® HiBiT Lytic Assay kit. Test compounds were added to the 384-well plate from a top concentration of 1 μM with 11 points, half log titration in quadruplicates. 293T.29 cells were added into 384-well plates at a cell density of 15000 cells per well. The plates were kept at 37° C. with 5% CO2 for 3 hours. The cells treated in the absence of the test compound were the negative control and the cells treated with 30 nM of a known BRD4 degrader were the positive control. After 3-hour incubation, Nano-Glo® HiBiT Lytic Assay reagents were added to the cells. Luminescence was acquired on EnVision™ Multilabel Reader (PerkinElmer, Santa Clara, Calif., USA).
In general terms: HiBiT is a short tag that completes a luciferase, so light tracks the accessible tagged protein.

Here are results for five compounds from patent US10849982B2, “C3-carbon linked glutarimide degronimers for target protein degradation” (C4 Therapeutics, Inc., priority 2016, dated 2020).

SMILES strings stand for the structures. A value given as a limit tells only on which side of the number the result lay.

Usually Kd stands for a measure of binding affinity in units of concentration. A high value points to a looser complex. For orientation: GI50 means the concentration that inhibits growth by half. As a reminder, the DC50 is the concentration giving 50% degradation. Low values mean a more potent degrader, high ones a less potent degrader.

Chain of CRBN-DDB1 (Q96SW2 whole entry): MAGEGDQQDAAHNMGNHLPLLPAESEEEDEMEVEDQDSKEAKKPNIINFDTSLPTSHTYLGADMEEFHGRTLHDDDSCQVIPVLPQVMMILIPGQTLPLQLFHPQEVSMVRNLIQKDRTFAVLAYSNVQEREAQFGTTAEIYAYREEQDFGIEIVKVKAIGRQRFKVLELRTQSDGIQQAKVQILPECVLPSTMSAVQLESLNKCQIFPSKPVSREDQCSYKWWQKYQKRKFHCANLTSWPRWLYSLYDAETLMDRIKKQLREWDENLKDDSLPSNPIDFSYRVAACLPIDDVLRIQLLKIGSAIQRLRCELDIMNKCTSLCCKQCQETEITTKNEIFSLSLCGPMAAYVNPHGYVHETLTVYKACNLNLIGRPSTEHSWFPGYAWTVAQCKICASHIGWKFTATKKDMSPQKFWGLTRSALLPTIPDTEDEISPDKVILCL
Chain of CRBN-DDB1 (Q16531 whole entry partner): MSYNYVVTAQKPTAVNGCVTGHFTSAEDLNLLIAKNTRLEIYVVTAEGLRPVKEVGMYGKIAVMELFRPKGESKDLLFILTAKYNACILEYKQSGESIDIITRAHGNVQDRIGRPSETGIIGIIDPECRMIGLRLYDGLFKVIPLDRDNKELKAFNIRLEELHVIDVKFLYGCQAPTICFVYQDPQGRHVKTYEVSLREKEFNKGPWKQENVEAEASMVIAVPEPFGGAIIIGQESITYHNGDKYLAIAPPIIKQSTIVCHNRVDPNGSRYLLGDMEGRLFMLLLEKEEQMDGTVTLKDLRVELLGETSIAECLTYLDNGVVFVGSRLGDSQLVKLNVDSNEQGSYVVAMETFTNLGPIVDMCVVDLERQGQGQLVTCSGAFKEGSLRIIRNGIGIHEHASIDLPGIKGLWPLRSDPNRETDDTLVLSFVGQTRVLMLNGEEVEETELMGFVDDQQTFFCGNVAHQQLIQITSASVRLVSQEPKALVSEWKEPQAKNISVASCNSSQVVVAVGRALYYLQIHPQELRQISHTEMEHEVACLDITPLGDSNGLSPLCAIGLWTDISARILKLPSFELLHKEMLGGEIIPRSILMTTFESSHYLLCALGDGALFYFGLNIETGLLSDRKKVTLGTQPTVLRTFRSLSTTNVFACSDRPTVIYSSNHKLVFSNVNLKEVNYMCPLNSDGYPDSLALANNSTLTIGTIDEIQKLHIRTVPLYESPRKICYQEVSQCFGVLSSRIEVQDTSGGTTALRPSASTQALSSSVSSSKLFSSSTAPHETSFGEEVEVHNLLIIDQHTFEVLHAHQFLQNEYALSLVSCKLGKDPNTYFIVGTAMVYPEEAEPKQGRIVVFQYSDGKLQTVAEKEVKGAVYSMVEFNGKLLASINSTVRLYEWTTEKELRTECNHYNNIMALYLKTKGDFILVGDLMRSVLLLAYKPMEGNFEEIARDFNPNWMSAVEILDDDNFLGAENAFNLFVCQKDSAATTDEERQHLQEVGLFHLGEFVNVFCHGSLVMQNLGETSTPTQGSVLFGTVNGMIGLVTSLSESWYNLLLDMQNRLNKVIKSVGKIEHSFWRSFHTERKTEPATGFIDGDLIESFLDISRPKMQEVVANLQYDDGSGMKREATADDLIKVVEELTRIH

Consider `O=C1CCC(O)(C(=O)OCc2ccccc2)C(=O)N1` (stereo not drawn) [Compound 60, benzyl 3-hydroxy-2,6-dioxopiperidine-3-carboxylate], for which the dissociation constant (Kd) on CRBN-DDB1 was 10 to 50 µM.
With `Cc1nc(C2CCC(=O)NC2=O)n2ccccc12` (stereo not drawn) [Compound 61, 3-(1-methylimidazo[1,5-a]pyridin-3-yl)piperidine-2,6-dione], on CRBN-DDB1, the Kd is below 10 µM.
Still for that read-out and setting: the same measure for `Cn1c(C2CCC(=O)NC2=O)nc2ccccc21` (stereo not drawn) [Compound 62, 3-(1-methyl-1H-benzo[d]imidazol-2-yl)piperidine-2,6-dione]: 50 to 100 µM; for `O=C1CCC(c2cn(-c3ccccc3)cn2)C(=O)N1` (stereo not drawn) [Compound 64, 3-(1-phenyl-1H-imidazol-4-yl)piperidine-2,6-dione]: 10 to 50 µM.
On CRBN-DDB1 (Table 2), `Cc1sc2c(c1C)C(c1ccc(Cl)cc1)=N[C@@H](CC(=O)NCCCCCCCC(=O)Nc1ccc3c(C4CCC(=O)NC4=O)nn(C)c3c1)c1nnc(C)n1-2` (stereo partly drawn) [Degronimer 1, 8-(2-((S)-4-(4-chlorophenyl)-2,3,9-trimethyl-6H-thieno[3,2-f][1,2,4]triazolo[4,3-a][1,4]diazepin-6-yl)acetamido)-N-(3-(2,6-dioxopiperidin-3-yl)-1-methyl-1H-indazol-6-yl)octanamide] gave a dissociation constant Kd below 10 µM. For the same compound, in the test with MOLT4.1 (WT) cell line, the Emax fell in the range of 0 to 50%, the 50% growth inhibitory concentration (GI50) lay in the range of 0.1 to 1 µM and the “LD50 (nM)” value is on record as “+ (>1 μM = +)”. In addition, in test [1], the Emax is above 50%, the GI50 was above 1 µM and the “LD50 (nM)” value is “+ (>1 μM = +)”. The half-maximal degradation concentration (DC50) on BRD4 BD1 is above 0.83 µM.
